In US20250026724A1, “(1,4,5-TRISUBSTITUTED 1H-PYRAZOL-3-YL)OXY-2-ALKYLTHIOALKYL ACIDS AND -ALKYL ACID DERIVATIVES, SALTS THEREOF AND USE THEREOF AS ACTIVE HERBICIDAL INGREDIENTS” (BAYER AKTIENGESELLSCHAFT, priority 2021, published 2025):

Assays:
Format in all cases: in vivo
[1] = system: Echinochloa crus-galli (ECHCG); test: Post-emergence herbicidal action, greenhouse pot trial; conditions: for Post-emergence effect at 320 g/ha against ECHCG in %: visual rating after about 3 weeks
Method in brief: (§1)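 Greenhouse-grown plants, sown in sandy loam, sprayed at the one-leaf stage (2–3 weeks after sowing) with WP or EC formulations in water plus 0.5% additive, 600 l/ha. Rates of 320 g/ha or lower. Visual rating after about 3 weeks versus untreated controls (100% = dead, 0% = as control).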

[2] = system: Amaranthus retroflexus (AMARE); test: as above; conditions: visual rating after about 3 weeks
Method in brief: as §1

[3] = system: Abutilon theophrasti (ABUTH); test: as above; conditions: visual rating after about 3 weeks
Method in brief: as §1

[4] = system: Setaria viridis (SETVI); test: as above; conditions: for Post-emergence effect at 320 g/ha against SETVI in %: visual rating after about 3 weeks
Method in brief: as §1

[5] = system: Bassia scoparia (KCHSC); test: as above
Method in brief: as §1

[6] = system: Polygonum convolvulus (POLCO); test: as above; conditions: visual rating after about 3 weeks
Method in brief: as §1

[7] = system: Pharbitis purpurea (PHBPU); test: as above; conditions: visual rating after about 3 weeks
Method in brief: as §1

[8] = system: Viola tricolor (VIOTR); test: as above
Method in brief: as §1

[9] = system: Zea mays (ZEAMX); test: Post-emergence crop plant compatibility, greenhouse pot trial; conditions: in comparison to untreated controls
Method in brief: (§2)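 Sandy loam pots, greenhouse; one-leaf stage (2–3 wk post-sowing) sprayed with aqueous WP/EC, 0.5% additive, 600 l/ha water rate. Visual % rating ~3 wk after treatment vs untreated; 0% = like control, 100% = plants died. Suffixes a/b/c mark different dosages.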

[10] = system: Triticum aestivum (TRZAS); test: as above; conditions: post-emergence, in comparison to untreated controls
Method in brief: as §2

[11] = system: Oryza sativa (ORYSA); test: as above; conditions: in comparison to untreated controls
Method in brief: as §2

[12] = system: Glycine max (GLXMA); test: as above; conditions: in comparison to untreated controls
Method in brief: as §2

[13] = system: Avena fatua (AVEFA); test: Post-emergence herbicidal action, greenhouse pot trial; conditions: 320 g/ha, visual rating after about 3 weeks
Method in brief: as §1

[14] = system: Matricaria inodora (MATIN); test: as above; conditions: visual rating after about 3 weeks
Method in brief: as §1

[15] = system: Lolium rigidum (LOLRI); test: as above; conditions: 320 g/ha, visual rating after about 3 weeks
Method in brief: as §1

[16] = system: Digitaria sanguinalis (DIGSA); test: as above; conditions: visual rating after about 3 weeks
Method in brief: as §1

[17] = system: Alopecurus myosuroides (ALOMY); test: as above; conditions: 320 g/ha, visual rating after about 3 weeks
Method in brief: as §1

[18] = system: Veronica persica (VERPE); test: as above; conditions: visual rating after about 3 weeks
Method in brief: as §1

Row | Post-emergence effect against ZEAMX (crop plant compatibility) ([9]; 20 g/ha) | Post-emergence effect against TRZAS (crop plant compatibility) ([10]; 20 g/ha) | SMILES | Post-emergence effect at 320 g/ha against ECHCG in % [1] | Post-emergence effect at 320 g/ha against AMARE in % [2] | Post-emergence effect at 80 g/ha against ABUTH in % [3] | Post-emergence effect at 320 g/ha against ABUTH in % [3] | Post-emergence effect at 320 g/ha against SETVI in % [4] | Post-emergence effect against KCHSC ([5]; 320 g/ha) | Post-emergence effect at 80 g/ha against POLCO in % [6] | Post-emergence effect at 320 g/ha against POLCO in % [6] | Post-emergence effect at 80 g/ha against PHBPU in % [7] | Post-emergence effect at 320 g/ha against PHBPU in % [7] | Post-emergence effect against VIOTR ([8]; 20 g/ha) | Post-emergence effect against VIOTR ([8]; 80 g/ha) | Post-emergence effect against VIOTR ([8]; 320 g/ha) | Post-emergence effect against GLXMA (crop plant compatibility) ([12]; 20 g/ha) | Post-emergence effect against GLXMA (crop plant compatibility) ([12]; 80 g/ha) | Post-emergence effect at 320 g/ha against MATIN in % [14] | Post-emergence effect at 80 g/ha against AMARE in % [2] | Post-emergence effect at 320 g/ha against DIGSA in % [16] | further results
1 | 0% | 0% | COC(=O)CCOC(=O)C(Oc1nn(-c2ncccc2F)c(-c2ccc(F)nc2)c1Br)SC (single isomer, unassigned) [Example I-22] | 90% | 80% | 90% | 90% | 80% | 90% | 90% | 90% | 90% | 90% | 80% | 90% | 90% | – | – | – | – | – | Post-emergence effect at 20 g/ha against PHBPU in % ([7]; 20 g/ha): 80%
2 | 0% | 0% | COC(=O)CCOC(=O)C(Oc1nn(-c2ncccc2F)c(-c2cncc(F)c2)c1Br)SC (stereo not shown) [Example I-45] | 90% | 90% | 90% | 90% | 90% | 90% | 80% | 80% | 80% | 80% | 80% | 90% | 90% | – | – | 90% | 90% | 90% | Post-emergence effect at 320 g/ha against AVEFA in % [13]: 100%; Post-emergence effect at 20 g/ha against MATIN in % ([14]; 20 g/ha): 80%; Post-emergence effect at 80 g/ha against MATIN in % [14]: 90%; Post-emergence effect at 20 g/ha against AMARE in % [2]: 80%; Post-emergence effect at 320 g/ha against LOLRI in % [15]: 100%; Post-emergence action at 20 g/ha against ABUTH in % [3]: 90%; Post-emergence effect at 80 g/ha against DIGSA in % ([16]; 80 g/ha): 80%; Post-emergence effect at 20 g/ha against KCHSC in % ([5]; 20 g/ha, visual rating after about 3 weeks): 90%; Post-emergence effect against KCHSC ([5]; 80 g/ha): 90%; Post-emergence effect against ZEAMX (crop plant compatibility) ([9]; 80 g/ha): 0%
3 | 0% | 0% | COC(=O)CCOC(=O)C(Oc1nn(-c2ccccc2F)c(-c2ccc(F)nc2)c1I)SC (stereo not shown) [Example I-54] | 90% | 90% | – | 80% | 90% | – | – | 80% | – | – | – | 80% | 90% | 0% | 0% | 80% | 90% | 80% | Post-emergence effect at 320 g/ha against ALOMY in % [17]: 80%
4 | 0% | 20% | COC(=O)CCOC(=O)C(Oc1nn(-c2ncccc2F)c(-c2cncc(F)c2)c1C1CC1)SC (stereo not shown) [Example I-63] | 90% | 90% | 80% | 90% | 90% | 90% | – | 80% | 90% | 90% | 90% | 90% | 90% | – | – | 90% | 80% | – | Post-emergence effect at 320 g/ha against AVEFA in % [13]: 100%; Post-emergence effect at 80 g/ha against MATIN in % [14]: 80%; Post-emergence effect at 20 g/ha against AMARE in % [2]: 80%; Post-emergence effect at 320 g/ha against LOLRI in % [15]: 90%; Post-emergence action at 20 g/ha against ABUTH in % [3]: 80%; Post-emergence effect at 80 g/ha against VERPE in % ([18]; 80 g/ha): 80%; Post-emergence effect at 320 g/ha against VERPE in % ([18]; 320 g/ha): 90%

Row | SMILES | Post-emergence effect against ZEAMX (crop plant compatibility) ([9]; 20 g/ha) | Post-emergence effect against TRZAS (crop plant compatibility) ([10]; 20 g/ha) | Post-emergence effect at 320 g/ha against ECHCG in % [1] | Post-emergence effect at 320 g/ha against AMARE in % [2] | Post-emergence effect at 80 g/ha against ABUTH in % [3] | Post-emergence effect at 320 g/ha against ABUTH in % [3] | Post-emergence effect at 320 g/ha against SETVI in % [4] | Post-emergence effect against KCHSC ([5]; 320 g/ha) | Post-emergence effect at 80 g/ha against POLCO in % [6] | Post-emergence effect at 320 g/ha against POLCO in % [6] | Post-emergence effect at 80 g/ha against PHBPU in % [7] | Post-emergence effect at 320 g/ha against PHBPU in % [7] | Post-emergence effect against VIOTR ([8]; 20 g/ha) | Post-emergence effect against VIOTR ([8]; 80 g/ha) | Post-emergence effect against VIOTR ([8]; 320 g/ha) | Post-emergence effect against GLXMA (crop plant compatibility) ([12]; 20 g/ha) | Post-emergence effect against GLXMA (crop plant compatibility) ([12]; 80 g/ha) | Post-emergence effect at 320 g/ha against MATIN in % [14] | Post-emergence effect at 80 g/ha against AMARE in % [2] | Post-emergence effect at 320 g/ha against DIGSA in % [16] | further results
5 | CCOC(=O)C(Oc1nn(-c2cc(F)ccc2F)c(-c2cncc(F)c2)c1C1CC1)SC (stereo not shown) [Example I-05] | 20% | 0% | – | – | – | – | – | – | – | – | – | – | – | – | – | 0% | 10% | – | – | – | pest or weed control at 320 g/ha ([1]; Echinochloa crus-galli, 504 h, read-out: Post-emergence effect at 320 g/ha against ECHCG in %): 80%; pest or weed control at 320 g/ha ([4]; Setaria viridis, 504 h, read-out: Post-emergence effect at 320 g/ha against SETVI in %): 90%; Post-emergence effect against TRZAS (crop plant compatibility) ([10]; 80 g/ha): 10%; Post-emergence effect against ORYSA (crop plant compatibility) ([11]; 20 g/ha): 0%; Post-emergence effect against ORYSA (crop plant compatibility) ([11]; 80 g/ha): 0%; Post-emergence effect against ORYSA (crop plant compatibility) ([11]; 320 g/ha): 10%
6 | COC(=O)C(C)COC(=O)C(Oc1nn(-c2ccccc2F)c(-c2ccc(F)nc2)c1I)SC (stereo not shown) [Example I-53] | – | 0% | 100% | 90% | – | 80% | 90% | 80% | – | 90% | – | 80% | – | 80% | 90% | 0% | 0% | 80% | – | 80% | –
